Several values for one entry are separate records, joined by “and”; a condition that tells them apart may be missing. Equal entries are not always repeated. Where two headings read alike, the source gives them in different places. Starred links: 1 amine or outer side, 2 acyl side, 3 side chain; linkers in the order of their positions; H or OH if unused. Positions of bridges follow the written chain, without caps; N, C: chain ends. Non-standard residues stand in square brackets, D forms with d. Residues, ends and D or L forms follow the SMILES beside them. TATA = O=C(CC[*:1])N1CN(C(=O)CC[*:2])CN(C(=O)CC[*:3])C1; Phe(4-F) = N[C@@H](Cc1ccc(F)cc1)C(=O)O; β3hR = N=C(N)NCCC[C@H](N)CC(=O)O
Tests used:
[1] = target: T1, trypsin (Homo sapiens, UniProt P07477); test: Specificity profiling, residual protease activity; type: biochemical
T1 construct: purchased Molecular Innovations
Procedure: (§1) Protease inhibition assays
(§2) The inhibitory activity of peptides was determined by measuring the residual protease activity with a fluorogenic substrate. The assay was performed in buffer containing 10 mM Tris-Cl, pH […]
(§3) 1% (v/v) DMSO in a volume of 150 µl. […]
(§4) HFXIIAB) were used at final concentrations of 0.4 nM. The reaction was pipetted as follows: 50 µl of bicyclic peptide in assay buffer were added to 50 µl of FXIIa in assay buffer and incubated for 10 minutes at 25°C before 50 µl of 150 µM fluorogenic substrate in assay buffer were added to measure the residual protease activity with an Infinite M200Pro fluorescence plate reader (excitation at 368 nm, emission at 467 nm; Tecan) for a period of 30 minutes with a read every minute at 25°C. The Tecan software i-control (version 1.1) was used for data analysis. Stock solutions of 1 mM bicyclic peptide were prepared by either dissolving the unpurified cyclization reaction with water or by dissolving purified and lyophilized peptide in water. The bicyclic peptides were serially diluted two-fold using assay buffer. Sigmoidal curves were fitted to the data using the following dose response equation (1), wherein x = peptide concentration, y = % protease activity, and p = Hill slope. IC50 values were derived from the fitted curve.
(§5) The inhibition constants (Ki) were calculated according to the equation of Cheng and Prusoff, Ki = IC50/(1+([S]0/Km), wherein IC50 is the functional strength of the inhibitor, [S]0 is the total substrate concentration, and Km is the Michaelis-Menten constant. […]
(§6) For testing the specificity of the bicyclic peptides, the following final concentrations of human serine proteases were used: tPA (Molecular Innovations) 7.5 nM, uPA (Molecular Innovations) 1.5 nM, factor XIa (Innovative Research) 6 nM, plasma kallikrein (Innovative Research) 0.25 nM, thrombin (Molecular Innovations) 1 nM, plasmin (Molecular Innovations) 2.5 nM, trypsin (Molecular Innovations) 0.05 nM, factor VIIa (Haematologic Technologies) 50 nM, factor Xa […]
(§7) (Haematologic Technologies) 6 nM, and activated protein C (APC) 5 nM. Two-fold dilutions of the peptide were prepared that ranged from 0.04 to 40 µM. The following fluorogenic substrates were used at a final concentration of 50 µM: Z-Phe-Arg-AMC (Bachem) for plasma kallikrein; Boc-Phe-Ser-Arg-AMC (Bachem) for factor XIa; Z-Gly-Gly-Arg-AMC (Bachem) for tPA, uPA, thrombin, and trypsin; H-D-Val-Leu-Lys-AMC (Bachem) for plasmin; and D-Phe-Pro-Arg-ANSNH-C4H9 (Haematologic Technologies) for FVIIa and FXa. For APC, the chromogenic substrate pyroGlu-Pro-Arg-pNA (S2366) was used at a concentration of 400 µM. […]

[2] = target: T2, factor Xa (Homo sapiens, UniProt P00742); test: Specificity profiling, residual protease activity; type: biochemical
T2 construct: (Molecular Innovations) 0.05 nM, factor VIIa (Haematologic Technologies) 50 nM, factor Xa; purchased Haematologic Technologies
Procedure: as §1, §2, §3, §4, §5, §6, §7

[3] = Plasma stability assay (residual FXIIa inhibitory activity after plasma incubation); type: in vitro ADME, human; conditions: for Residual activity of inhibitor: human plasma 37 °C; for half-life at 10 μM: human, plasma
Procedure: Peptide (2 μl of 2 mM in H2O) was added to 398 μl of citrated human plasma (Innovative Research) to obtain a final peptide concentration of 10 μM. The mixture was incubated in a water bath at 37 °C. At different time points (0, 0.5, 1, 2, 4, 8, 12, 24, 48, and 96 h), samples of 30 μl were removed, diluted to 200 μl with aqueous buffer (10 mM Tris-HCl, pH 7.4, 150 mM NaCl, 10 mM MgCl2, 1 mM CaCl2), and incubated for 20 min at 65 °C to inactivate plasma proteases. The peptide/plasma samples were stored at −20 °C until the residual inhibitory activity of the peptides was measured in a FXIIa inhibition assay. […] IC50 values were derived from the fitted curve using an equation described in the Supplementary Methods. Residual inhibition in % was calculated using the equation IC50,0h/IC50,xh*100, wherein IC50,0h is the functional strength of the inhibitor at time point 0 and IC50,xh the functional strength of the inhibitor after one of the different plasma incubation periods mentioned above.

[4] = inhibitor 39.0625 nM, 0.0390625 µM
[5] = inhibitor 78.125 nM, 0.078125 µM
[6] = inhibitor 156.25 nM, 0.15625 µM
[7] = inhibitor 40000 nM (40 µM), 40 µM

T2 sequence (P00742 235-488 limits assumed): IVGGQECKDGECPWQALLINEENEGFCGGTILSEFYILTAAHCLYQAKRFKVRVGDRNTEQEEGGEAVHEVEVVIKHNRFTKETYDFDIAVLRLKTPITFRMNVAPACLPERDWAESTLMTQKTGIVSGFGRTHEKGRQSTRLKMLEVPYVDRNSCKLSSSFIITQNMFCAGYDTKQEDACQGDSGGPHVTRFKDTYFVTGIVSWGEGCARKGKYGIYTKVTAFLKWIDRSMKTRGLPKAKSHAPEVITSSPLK
T2 sequence (P00742 41-179 limits assumed): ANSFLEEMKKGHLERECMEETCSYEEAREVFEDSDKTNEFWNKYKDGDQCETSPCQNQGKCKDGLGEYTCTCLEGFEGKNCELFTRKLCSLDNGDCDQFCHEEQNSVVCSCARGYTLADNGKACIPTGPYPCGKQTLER

CC(C)C[C@@H]1NC(=O)[C@H](CCC(N)=O)NC(=O)[C@H](Cc2c[nH]cn2)NC(=O)[C@@H]2CSCCC(=O)N3CN(CN(C3)C(=O)CCSC[C@H](NC(=O)[C@@H](CO)NC(=O)[C@H](N)CCCNC(=N)N)C(=O)N[C@@H](Cc3ccc(F)cc3)C(=O)N[C@@H](CCCNC(=N)N)C(=O)N[C@@H](CC(C)C)C(=O)N3CCC[C@H]3C(=O)N2)C(=O)CCSC[C@@H](C(N)=O)NC(=O)C[C@H](CCCNC(=N)N)NC1=O [FXII900] (H-[dR][dS]C[Phe(4-F)]RLPCHQL[β3hR]C-NH2; linker 3-8-13 via TATA)
Ki [1]: 1460 nM
remaining activity at 0.0390625 µM ([1]; inhibitor 39.0625 nM): 99%
Residual activity of Trypsin [1, 4]: 98.1138%
remaining activity at 0.078125 µM ([1]; inhibitor 78.125 nM): 100%
Residual activity of Trypsin [1, 5]: 99.9393%
remaining activity at 0.15625 µM ([1]; inhibitor 156.25 nM): 91.6%
Residual activity of Trypsin [1, 6]: 92.2203%
remaining activity at 0.3125 µM ([1]; inhibitor 312.5 nM): 86%
Residual activity of Trypsin ([1]; inhibitor 312.5 nM, 0.3125 µM): 88.4651%
remaining activity at 0.625 µM ([1]; inhibitor 625 nM): 77.9%
Residual activity of Trypsin ([1]; inhibitor 625 nM, 0.625 µM): 73.7094%
remaining activity at 1.25 µM ([1]; inhibitor 1250 nM): 64%
Residual activity of Trypsin ([1]; inhibitor 1250 nM, 1.25 µM): 61.5181%
remaining activity at […] ([1]; inhibitor 2500 nM): 47.5%
Residual activity of Trypsin ([1]; inhibitor 2500 nM, […]): 46.5602%
remaining activity at 5 µM ([1]; inhibitor 5000 nM): 34.6%
Residual activity of Trypsin ([1]; inhibitor 5000 nM, 5 µM): 30.2825%
remaining activity at 10 µM ([1]; inhibitor 10000 nM): 21%
Residual activity of Trypsin ([1]; inhibitor 10000 nM, 10 µM): 19.2935%
remaining activity at 20 µM ([1]; inhibitor 20000 nM): 12.9%
Residual activity of Trypsin ([1]; inhibitor 20000 nM, 20 µM): 12.2739%
remaining activity at 40 µM ([1]; inhibitor 40000 nM (40 µM)): 9.2%
Residual activity of Trypsin [1, 7]: 9.912% and 8.397%
Residual activity of FXa [2, 4]: 101.787%
remaining activity at 0.0390625 µM ([2]; inhibitor 39.0625 nM, read-out: Residual activity of FXa): 94.8%
Residual activity of FXa [2, 5]: 97.2913%
remaining activity at 0.078125 µM ([2]; inhibitor 78.125 nM, read-out: Residual activity of FXa): 93.4%
Residual activity of FXa [2, 6]: 100.804%
remaining activity at 0.15625 µM ([2]; inhibitor 156.25 nM, read-out: Residual activity of FXa): 97.6%
Residual activity of FXa ([2]; inhibitor 312.5 nM, 0.3125 µM): 95.4335%
remaining activity at 0.3125 µM ([2]; inhibitor 312.5 nM, read-out: Residual activity of FXa): 95.1%
Residual activity of FXa ([2]; inhibitor 625 nM, 0.625 µM): 101.673%
remaining activity at 0.625 µM ([2]; inhibitor 625 nM, read-out: Residual activity of FXa): 97.6%
Residual activity of FXa ([2]; inhibitor 1250 nM, 1.25 µM): 99.2096%
remaining activity at 1.25 µM ([2]; inhibitor 1250 nM, read-out: Residual activity of FXa): 99.4%
Residual activity of FXa ([2]; inhibitor 2500 nM, […]): 104.071%
remaining activity at […] ([2]; inhibitor 2500 nM, read-out: Residual activity of FXa): 98.3%
Residual activity of FXa ([2]; inhibitor 5000 nM, 5 µM): 101.691%
remaining activity at 5 µM ([2]; inhibitor 5000 nM, read-out: Residual activity of FXa): 94.7%
Residual activity of FXa ([2]; inhibitor 10000 nM, 10 µM): 102.146%
remaining activity at 10 µM ([2]; inhibitor 10000 nM, read-out: Residual activity of FXa): 99.4%
Residual activity of FXa ([2]; inhibitor 20000 nM, 20 µM): 104.386%
remaining activity at 20 µM ([2]; inhibitor 20000 nM, read-out: Residual activity of FXa): 94.7%
Residual activity of FXa [2, 7]: 96.1187% and 97.9911%
remaining activity at 40 µM ([2]; inhibitor 40000 nM (40 µM), read-out: Residual activity of FXa): 97.1%
Ki ([2]; read-out: Ki FXa): > 40000 nM
Residual activity of inhibitor ([3]; incubation time 0 h): 100%
Residual activity of inhibitor ([3]; incubation time 1 h): 95.4017% and 101.157%
Residual activity of inhibitor ([3]; incubation time 2 h): 110.888% and 102.799%
Residual activity of inhibitor ([3]; incubation time 4 h): 107.121% and 93.1543%
Residual activity of inhibitor ([3]; incubation time 8 h): 88.5873% and 105.225%
Residual activity of inhibitor ([3]; incubation time 12 h): 112.249% and 90.2639%
Residual activity of inhibitor ([3]; incubation time 24 h): 92.7385% and 98.9596%
Residual activity of inhibitor ([3]; incubation time 48 h): 82.5714% and 71.5934%
Residual activity of inhibitor ([3]; incubation time 96 h): 52.5% and 56.04%
half-life at 10 μM ([3]; 37 °C, remaining FXIIa inhibitory activity, read-out: half-life in human plasma (converted)): 128 h
half-life at 10 μM ([3]; t1/2 in plasma): > 120 h
